One data set has as its target T1, TRPC3:C3 (Homo sapiens, UniProt Q13507).
T1 construct: expressed in transfected cells
Briefly: [Ca2+]i recordings (Fura-2), TRPC3:C3 in HEK T-REx cells. Format: cell-based. As for the experimental part:
Based on the findings described above, we wondered whether AC1903—which is typically used as a TRPC5 inhibitor at concentrations of 30–100 μM in cellular assays ([29], [56])—might have limited selectivity for TRPC5 channels and whether its effect on intracellular G418 levels and PTC readthrough might be the consequence of inhibition of other or multiple targets. All well-characterized TRPC channel inhibitors reported to date modulate multiple TRP(C) channels ([34], [35], [36]). […] Because limited data for the selectivity of AC1903 are available in the public domain, we decided to profile AC1903 against a selection of calcium-permeable cation channels by intracellular calcium ([Ca^2+]i) recordings using well-characterized cell lines and TRP channel activators ([46], [57], [58]), and the Ca^2+ indicator Fura-2. In these assays, cells (HEK 293, HEK T-REx, or CHO) overexpressing the relevant ion channel protein and loaded with Fura-2 AM (a cell-permeable precursor of Fura-2) were preincubated with various concentrations of AC1903 or vehicle (DMSO) for 30 min. Then, changes in ratiometric fluorescence (from background) were recorded upon addition of the respective ion channel activator. […]

In another data set the test system is A498 cells. Briefly: Cell viability assay (WST-1), A498 cells, AC1903 alone. The data set is classed as cell-based. The conditions noted are these: 0.1–100 μM, 8 h. How it is done: Cell viability assays were carried out using WST-1 Cell Proliferation Reagent (Merck). A498 cells were plated onto clear 96-well plates at 4000 cells per well and left to adhere for 24 h. Media was then removed, and replaced with fresh media containing 100 nM EA, in presence of either DMSO or 0.1 to 100 μM AC1903. Control wells were treated with vehicle (DMSO) only. To exclude any potential cytotoxic effects of AC1903 itself, cells were incubated with 0.1 to 100 μM AC1903 in absence of EA. Cells were treated in triplicate. Cells were incubated with compounds for 8 h. After 8 h, treatment media was removed and media containing WST-1 reagent (10 μl reagent +100 μl media per well) was added to each well and incubated for 1.5 h at 37 °C. Blank wells contained media and WST-1 reagent (no cells). […] Absorbance was then read at 440 nm and 650 nm (reference wavelength). To analyze data, the value of the 650 nm was subtracted from that of the 440 nm reading. Values across triplicate wells were averaged, and the value from the blank wells subtracted to account for background absorbance. […]
Inhibition of G418-induced premature stop codon readthrough
A498 cytotoxicity . […] Cell viability was calculated as % of control, and the effect of AC1903 was compared to control (0 µM ) (scatter plots showing data from three independent experiments; bars represent mean ± SD; n = 3). […]
(In general: Tetrazolium assays rely on reduction of a dye to a coloured formazan, in cell work by metabolically active cells.)

SMILES strings stand for the structures. “Also recorded” adds a separate entry of the source.

T1 sequence (Q13507 whole entry): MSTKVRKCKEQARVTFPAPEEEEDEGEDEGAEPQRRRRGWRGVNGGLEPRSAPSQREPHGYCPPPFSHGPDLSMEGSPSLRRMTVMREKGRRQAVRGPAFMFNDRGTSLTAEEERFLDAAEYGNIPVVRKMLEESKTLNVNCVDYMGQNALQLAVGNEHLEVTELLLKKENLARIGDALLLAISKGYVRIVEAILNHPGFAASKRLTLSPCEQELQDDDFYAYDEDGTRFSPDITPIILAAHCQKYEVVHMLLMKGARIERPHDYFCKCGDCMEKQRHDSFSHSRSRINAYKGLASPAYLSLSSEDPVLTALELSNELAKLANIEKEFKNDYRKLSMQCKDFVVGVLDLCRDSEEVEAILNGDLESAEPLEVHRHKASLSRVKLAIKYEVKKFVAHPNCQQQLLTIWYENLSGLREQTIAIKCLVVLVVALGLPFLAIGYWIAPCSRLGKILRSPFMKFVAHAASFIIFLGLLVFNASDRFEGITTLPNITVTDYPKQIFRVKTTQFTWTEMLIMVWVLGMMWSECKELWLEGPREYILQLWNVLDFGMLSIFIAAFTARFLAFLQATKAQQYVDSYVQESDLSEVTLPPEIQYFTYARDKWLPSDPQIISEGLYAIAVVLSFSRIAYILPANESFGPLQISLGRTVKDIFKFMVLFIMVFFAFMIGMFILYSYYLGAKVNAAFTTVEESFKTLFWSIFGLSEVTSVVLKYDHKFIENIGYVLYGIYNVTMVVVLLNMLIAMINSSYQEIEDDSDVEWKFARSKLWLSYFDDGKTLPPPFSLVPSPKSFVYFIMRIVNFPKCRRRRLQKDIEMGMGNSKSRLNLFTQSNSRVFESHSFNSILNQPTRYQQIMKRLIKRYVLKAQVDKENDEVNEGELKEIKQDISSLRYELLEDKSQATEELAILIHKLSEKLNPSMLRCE

The term IC50 denotes the concentration that inhibits the measured activity by half. A low value points to greater potency in that assay. In general, Hill slope refers to a measure of the steepness of the concentration-response curve. `c1ccc(Cn2c(NCc3ccco3)nc3ccccc32)cc1` [AC1903] registered a half-maximal inhibitory concentration (IC50) at TRPC3:C3 (HEK T-REx, activator OAG (100 μM)) of 5.2 µM. Moreover, the Hill slope on TRPC3:C3 (activator OAG) is -1.4. Moreover, the “effect on viability of A498 cells” value with A498 cells is on record as “not toxic; also recorded: did not affect viability”.

The values above are taken from publication PMC8808171, “Nonselective TRPC channel inhibition and suppression of aminoglycoside-induced premature termination codon readthrough by the small molecule AC1903” (The Journal of Biological Chemistry, 2022).
